Results as given in patent US20120004230A1, “IMIDAZOLE DERIVATIVES” (priority 2006, published 2012).
Read-outs that look alike come from different tables or passages of the source.

Target: T1, TAAR1 (Mus musculus, UniProt Q923Y8)
T1 construct: expressed in transfected cells; host or cells: HEK293 cells (ATCC # CRL-1573), stably transfected with a pIRESneo2 expression plasmid; membranes prepared from them
Assay: Radioligand binding to TAAR1, membranes of stably transfected HEK293 cells
Experimental: For the construction of expression plasmids, the coding sequences of human, rat and mouse TAAR 1 were amplified from genomic DNA essentially as described by Lindemann et al. (2005) Genomics 85, 372-385. The Expand High Fidelity PCR System (Roche Diagnostics) was used with 1.5 mM Mg^2F and purified PCR products were cloned into pCR2.1-TOPO cloning vector (Invitrogen) following the instructions of the manufacturer. PCR products were subcloned into the pIRESneo2 vector (BD Clontech, Palo Alto, Calif.), and expression vectors were sequence verified before introduction in cell lines.
HEK293 cells (ATCC # CRL-1573) were cultured essentially as described in Lindemann et al. (2005) Genomics 85, 372-385. For the generation of stably transfected cell lines, HEK293 cells were transfected with the pIRESneo2 expression plasmids containing the TAAR coding sequences (described above) with Lipofectamine 2000 (Invitrogen) according to the instructions of the manufacturer, and 24 hours post transfection, the culture medium was supplemented with 1 mg/ml G418 (Sigma, Buchs, Switzerland). After a culture period of about 10 days, clones were isolated, expanded and tested for responsiveness to trace amines (all compounds purchased from Sigma) with the cAMP Biotrak Enzyme immunoassay (EIA) System (Amersham) following the non-acetylation EIA procedure provided by the manufacturer.
Cells at confluence were rinsed with ice-cold phosphate buffered saline without Ca^2+ and Mg^2+ containing 10 mM EDTA and pelleted by centrifugation at 1000 rpm for 5 minutes at 4° C. The pellet was then washed twice with ice-cold phosphate buffered saline and the cell pellet was frozen immediately by immersion in liquid nitrogen and stored until use at −80° C. The cell pellet was then suspended in 20 ml HEPES-NaOH (20 mM), pH 7.4 containing 10 mM EDTA, and homogenized with a Polytron (PT 3000, Kinematica) at 10,000 rpm for 10 seconds. The homogenate was centrifuged at 48,000×g for 30 minutes at 4° C. and the pellet resuspended in 20 ml HEPES-NaOH (20 mM), pH 7.4 containing 0.1 mM EDTA (buffer A), and homogenized with a Polytron at 10,000 rpm for 10 seconds. The homogenate was then centrifuged at 48,000×g for 30 minutes at 4° C. and the pellet resuspended in 20 ml buffer A, and homogenized with a Polytron at 10,000 rpm for 10 seconds. Protein concentration was determined by the method of Pierce (Rockford, Ill.). The homogenate was then centrifuged at 48,000×g for 10 minutes at 4° C., resuspended in HEPES-NaOH (20 mM), pH 7.0 including MgC12 (10 mM) and CaCl2 ([…]) (buffer B) at 200 μg protein per ml and homogenized with a Polytron at 10,000 rpm for 10 seconds.
Binding assay was performed at 4° C. in a final volume of 1 ml, and with an incubation time of 30 minutes. The radioligand [^3H]-rac-2-(1,2,3,4-tetrahydro-1-naphthyl)-2-imidazoline was used at a concentration equal to the calculated Kd value of 60 nM to give a total binding at around 0.1% of the total added radioligand concentration, and a specific binding which represented approximately 70-80% of the total binding. Non-specific binding was defined as the amount of [^3H]-rac-2-(1,2,3,4-tetrahydro-1-naphthyl)-2-imidazoline bound in the presence of the appropriate unlabelled ligand (10 μM). Competing ligands were tested in a wide range of concentrations ([…]). […] Each experiment was performed in duplicate. All incubations were terminated by rapid filtration through UniFilter-96 plates (Packard Instrument Company) and glass filter GF/C, pre-soaked for at least 2 hours in polyethylenimine 0.3%, and using a Filtermate 96 Cell Harvester (Packard Instrument Company). The tubes and filters were then washed 3 times with 1 ml aliquots of cold buffer B. Filters were not dried and soaked in Ultima gold (45 μl/well, Packard Instrument Company) and bound radioactivity was counted by a TopCount Microplate Scintillation Counter (Packard Instrument Company).

[1] = mouse TAAR1, radioligand [3H]-rac-2-(1,2,3,4-tetrahydro-1-naphthyl)-2-imidazoline at 60 nM, 4° C., 30 minutes, read-out: Ki (μM) mouse

T1 sequence (Q923Y8 whole entry): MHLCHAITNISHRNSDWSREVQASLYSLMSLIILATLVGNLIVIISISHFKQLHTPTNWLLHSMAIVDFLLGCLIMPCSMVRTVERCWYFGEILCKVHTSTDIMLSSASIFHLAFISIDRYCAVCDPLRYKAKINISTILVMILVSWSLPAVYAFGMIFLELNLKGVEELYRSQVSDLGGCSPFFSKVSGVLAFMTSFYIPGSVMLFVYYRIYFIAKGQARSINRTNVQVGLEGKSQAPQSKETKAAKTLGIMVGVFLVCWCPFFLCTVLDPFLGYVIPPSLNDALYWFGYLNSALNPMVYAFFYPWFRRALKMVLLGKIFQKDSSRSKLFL

Row | Compound | Ki [µM] | Ki [1] [µM] | also measured
1 | c1ccc2c(c1)CCCC2C1=NCCN1 (racemic) [[^3H]-rac-2-(1,2,3,4-tetrahydro-1-naphthyl)-2-imidazoline, reference compound] |  |  | Kd (radioligand used at a concentration equal to its calculated Kd, TAAR1 species not given): 60 nM
2 | CCC(Cc1cnc[nH]1)c1ccccc1 (stereo not drawn) [Example 1, 4-(2-Phenyl-butyl)-1H-imidazole] | 0.0609 |  | 
3 | Clc1ccccc1CCc1cnc[nH]1 [Example 5, 4-[2-(2-Chloro-phenyl)-ethyl]-1H-imidazole] | 0.0059 |  | 
4 | COc1ccccc1CCc1cnc[nH]1 [Example 8, 4-[2-(2-Methoxy-phenyl)-ethyl]-1H-imidazole] | 0.0843 |  | 
5 | Clc1cccc(CCc2cnc[nH]2)c1 [Example 11, 4-[2-(3-Chloro-phenyl)-ethyl]-1H-imidazole] | 0.0025 |  | 
6 | Fc1cccc(CCc2cnc[nH]2)c1 [Example 12, 4-[2-(3-Fluoro-phenyl)-ethyl]-1H-imidazole] | 0.0097 |  | 
7 | FC(F)(F)c1cccc(CCc2cnc[nH]2)c1 [Example 13, 4-[2-(3-Trifluoromethyl-phenyl)-ethyl]-1H-imidazole] | 0.0106 |  | 
8 | COc1cccc(CCc2cnc[nH]2)c1 [Example 14, 4-[2-(3-Methoxy-phenyl)-ethyl]-1H-imidazole] | 0.0606 |  | 
9 | Clc1ccc(CCc2cnc[nH]2)cc1 [Example 16, 4-[2-(4-Chloro-phenyl)-ethyl]-1H-imidazole] | 0.0172 |  | 
10 | Clc1cc(Cl)cc(CCc2cnc[nH]2)c1 [Example 17, 4-[2-(3,5-Dichloro-phenyl)-ethyl]-1H-imidazole] | 0.0019 |  | 
11 | Clc1cccc(OCc2cnc[nH]2)c1Cl [Example 20, 4-(2,3-Dichloro-phenoxymethyl)-1H-imidazole] |  | 0.043 | 
12 | Fc1cccc(OCc2cnc[nH]2)c1F [Example 35, 4-(2,3-Difluoro-phenoxymethyl)-1H-imidazole] |  | 0.0889 | 
13 | Clc1ccc(OCc2cnc[nH]2)cc1Cl [Example 36, 4-(3,4-Dichloro-phenoxymethyl)-1H-imidazole] |  | 0.0227 | 
14 | Fc1cc(OCc2cnc[nH]2)ccc1Cl [Example 37, 4-(4-Chloro-3-fluoro-phenoxymethyl)-1H-imidazole] |  | 0.0802 | 
15 | c1ncc(COc2ccc3ccoc3c2)[nH]1 [Example 39, 5-(Benzofuran-6-yloxymethyl)-1H-imidazole] |  | 0.0684 | 
16 | Clc1cccc(SCc2cnc[nH]2)c1Cl [Example 42, 5-(2,3-Dichloro-phenylsulfanylmethyl)-1-imidazole] |  | 0.0041 | 
17 | Cc1[nH]cnc1CSc1ccc(Cl)cc1 [Example 46, 4-(4-Chloro-phenylsulfanylmethyl)-5-methyl-1H-imidazole] |  | 0.0146 | 
18 | c1ccc2cc(SCc3c[nH]cn3)ccc2c1 [Example 47, 4-(Naphthalen-2-ylsulfanylmethyl)-1H-imidazole] |  | 0.0103 | 
